The results in this text go back to patent publication US20050124626A1, “Novel compounds” (priority 2002, published 2005).

Where a name gives a salt, the structure may show the parent alone.

T1 sequence (P50406 whole entry): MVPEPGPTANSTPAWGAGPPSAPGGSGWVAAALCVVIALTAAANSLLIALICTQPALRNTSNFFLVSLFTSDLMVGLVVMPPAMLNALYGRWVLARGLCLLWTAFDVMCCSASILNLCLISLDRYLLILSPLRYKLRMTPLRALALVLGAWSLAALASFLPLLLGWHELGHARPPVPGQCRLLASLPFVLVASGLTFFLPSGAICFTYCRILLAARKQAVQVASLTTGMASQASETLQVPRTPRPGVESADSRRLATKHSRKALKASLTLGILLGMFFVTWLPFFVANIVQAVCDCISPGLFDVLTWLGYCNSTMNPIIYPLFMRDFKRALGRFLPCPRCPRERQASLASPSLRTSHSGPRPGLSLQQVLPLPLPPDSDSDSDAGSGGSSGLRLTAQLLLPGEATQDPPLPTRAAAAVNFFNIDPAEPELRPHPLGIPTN

This test concerns the target T1, human cloned 5-HT6 receptors (Homo sapiens, UniProt P50406).
T1 construct: expressed in transfected cells
As to the kind of experiment: 5-HT6 receptor affinity following the procedures outlined in WO98/27081. Type of test: binding. The settings on record: read-out: pKi values at human cloned 5-HT6 receptors (converted). The text has this: Compounds can be tested following the procedures outlined in WO98/27081.
On to `O=S(=O)(c1ccccc1)c1c[nH]c2c(N3CCNCC3)nccc12` [Example E6, 7-piperazin-1-yl-3-phenylsulfonyl-1H-pyrrolo[2,3-c]pyridine hydrochloride], for which the Ki was under 31.6 nM.

Turning to `O=S(=O)(c1ccccc1F)c1c[nH]c2c(N3CCNCC3)nccc12` [Example E7, 3-(2-Fluorophenyl)sulfonyl-7-piperazin-1-yl-1H-pyrrolo[2,3-c]pyridine hydrochloride], the Ki was under 31.6 nM. Consider `O=S(=O)(c1cccc(F)c1)c1c[nH]c2c(N3CCNCC3)nccc12` [Example E8, 3-(3-Fluorophenyl)sulfonyl-7-piperazin-1-yl-1H-pyrrolo[2,3-c]pyridine hydrochloride], for which the Ki was under 31.6 nM.

Regarding `Cc1cc(N2CCNCC2)c2ccc(S(=O)(=O)c3ccccc3)cc2n1` [Example E9, 2-Methyl-4-piperazin-1-yl-7-phenylsulfonylquinoline hydrochloride], the Ki was under 10 nM. For `O=S(=O)(c1ccccc1)c1ccnc2c(N3CCNCC3)cccc12` [Example E10, 4-Phenylsulfonyl-8-piperazin-1-yl quinoline], the Ki was under 10 nM.

For the molecule `O=S(=O)(c1ccccc1)c1ccnc2c(N3CCNCC3)cccc12` [Example E11, 4-Phenylsulfonyl-8-piperazin-1-yl-quinoline hydrochloride], the Ki is under 10 nM.

For the molecule `Cc1cc(S(=O)(=O)c2ccccc2)c2cccc(N3CCNCC3)c2n1` [Example E12, 2-Methyl-4-phenylsulfonyl-8-piperazin-1-yl-quinoline], the Ki was under 10 nM. Take `Cc1cc(S(=O)(=O)c2ccccc2)c2cccc(N3CCNCC3)c2n1` [Example E13, 2-Methyl-4-phenylsulfonyl-8-piperazin-1-ylquinoline hydrochloride]: the Ki was under 10 nM. As for `Cc1cc(S(=O)(=O)c2ccccc2F)c2cccc(N3CCNCC3)c2n1` [Example E14], the Ki was under 10 nM.

Consider `Cc1cc(S(=O)(=O)c2cccc(F)c2)c2cccc(N3CCNCC3)c2n1` [Example E15], for which the Ki was under 10 nM. Regarding `Cc1cc(S(=O)(=O)c2cccc(Cl)c2)c2cccc(N3CCNCC3)c2n1` [Example E16], the Ki is under 10 nM.
